Patent US20260209260A1, “VECTORIZED NHC IRIDIUM(III) COMPLEXES AND USE THEREOF IN PHOTODYNAMIC THERAPY AND/OR DIAGNOSTIC” (CENTRE NATIONAL DE LA RECHERCHE SCIENTIFIQUE, priority 2022, published 2026)
“And” between values parts separate entries of the source, which are not always exact repeats. Equal entries are not always repeated. Where two headings read alike, the source gives them in different places.

Experiments:
[1] = Lipophilicity: octanol-water partition coefficient, shake-flask method
Procedure: The octanol-water partition coefficients (P) of all the complexes were determined using a shake-flask method^8. Water (100 mL, distilled after milli-Q purification) and n-octanol (100 mL, Sigma Aldrich, ACS spectrophotometric grade, ≥99%) were shaken together for 24 h to allow saturation of both phases. Stock solutions of the compounds ([…]) were prepared in the aqueous phase. Aliquots (2 mL) of each of these stock solutions were then added to an equal volume of the n-octanol phase. The resultant biphasic solution was mixed for 15 min and then centrifuged (3000 tr/min, 5 min) to separate the phases. The concentrations of the complex in the organic and aqueous phases were then determined using UV absorbance spectroscopy (260 nm). The blank is the water saturated with n-octanol. Log P was defined as logarithm of the ratio of the concentrations of the complex in the organic and aqueous phases (values reported are the means of at least three separated determinations).
The Log P values have been determined by a classical shake-flask method.

T24 bladder cancer cells = assay: Cell viability assay (MTT), dark and blue light; format: cell-based, Human; conditions: for Photosensitizing index (PI) T24: dark vs blue light 458 nm; for SI (vs NIH-3T3) T24 Blue: blue light 458 nm
Procedure: (§1) Cells were grown in humidified incubators at 37° C. in 5% CO2. Murine MC3T3 osteoblast and NIH-3T3 fibroblast cells-used as non-tumor cell models-were cultured in a-MEM medium and DMEM medium supplemented with 10% fetal bovine serum (FBS) and 1% Penicillin/Streptomycin (P/S) antibiotics, respectively. Human T24 bladder, MGHU3 bladder, Scaber bladder, A549 lung, MCF7 breast, MiaPaCa2 pancreas cancer cells were cultured in DMEM medium supplemented with 10% FBS and 1% P/S antibiotics. […] Human Hela cervix and HepG2 liver cancer cells were cultured EMEM medium supplemented with 10% FBS and 1% P/S antibiotics.
(§2) MTT reagent (3-(4,5-dimethylthiazol-2-yl)-2,5-diphenyltetrazolium bromide) was used to determine cell death as originally described by Mosmann. Briefly, cells were seeded from 5,000 to 10,000 cells/well in 24-well plates (1 mL) depending on the cell type and allowed to attach overnight. The complexes were prepared in DMSO. The concentration of the complexes was calculated based on the elemental composition of the complexes determined by the elemental analyses. All cell viability experiments were carried out with a fixed concentration of 0.1% (v/v) DMSO. After 72 h of treatment, cells were incubated at 37° C. and 5% CO2 with 25 μL of MTT solution (5 mg/ml; Sigma-Aldrich) in 24-well plates for 3 to 4 h. After solubilization with 500 μL of DMSO, formazan was quantified spectrophotometrically with a microplate reader at 570 nm absorbance (ClarioSTAR, BMG LabTech). […] All the results were calculated from data obtained in at least three independent experiments performed in triplicate.
(§3) Two sets of experiments were conducted in parallel for each complex to be studied:
(§4) 1. The cells were incubated with the different complexes (in the dark) for 72 h.
(§5) 2. The cells were incubated for 8 h with the different complexes (in the dark), then irradiated for 10 min, followed by an incubation in the dark up to 72 h.

[2] = Emission lifetime measurement; format: physicochemical
Procedure: Fluorescence lifetime measurements were performed by an Edinburgh FLS920 spectrofluorimeter equipped with a TCC900 card for data acquisition in time-correlated single-photon counting experiments (0.5 ns time resolution) with a D2 lamp and an LDH—P-C-405 pulsed diode laser. The estimated experimental error is 2 nm on the band maximum (5% on the lifetime, 10% on the fluorescence quantum yield).
The emission lifetimes of biotin-vectorized complexes (I-a) to (I-l) range from 138 ns to 411 ns, among them, the lifetime of biotin-vectorized complexes (I-c), (I-e), (I-k) are 411, 224, and 322 ns respectively. The emission lifetimes of FTS-vectorized complexes (II-a) to (II-l) range from 167 ns to 486 ns, among them, the lifetime of FTS-vectorized complexes (II-c) and (II-k) are 319 and 486 ns respectively. The emission lifetimes of PSMA-vectorized complexes (III-a) to (III-l) are in the range of 159-649 ns, among them, the lifetime of complexes (III-a) and (III-k) were 248 and 649 ns, respectively. The emission lifetimes of Fc-vectorized complexes (IV-a) to (IV-l) are in the range of 178-228 ns.

[3] = UV/Vis absorption spectra; format: physicochemical; conditions: room temperature; for maximum absorption, lowest-lying bands in the visible region over 360 nm: CH2Cl2 or CH2Cl2/MeOH (1:1); for λmax (nm) ε (M^−1 · cm^−1): air-saturated CH2Cl2 or CH2Cl2/MeOH (1:1), 50 μM, ε in brackets, sh = shoulder
Procedure: UV/Vis absorption spectra were recorded at RT on solutions contained in quartz cuvettes (optical pathlength 1 cm, Hellma®) with a PerkinElmer® UV/VIS/NIR spectrophotometer Lambda 950 and a PerkinElmer® detector UV/VIS/NIR Accessory 2D Detector Module.

[4] = test system: NIH-3T3 fibroblast cells (non-tumor); assay: Cell viability assay (MTT), dark and blue light; format: cell-based, Murine; conditions: for Photosensitizing index (PI): NIH-3T3, dark vs blue light
Procedure: as §1, §2, §3, §4, §5

[5] = Luminescence emission spectra and quantum yield; format: physicochemical; conditions: for ΦP emission phosphorescence quantum yield: room temperature, reference POPOP in hexane or rhodamine B in ethanol; for λem: CH2Cl2, room temperature, λexc 365 nm or 470 nm
Procedure: Fluorescence and phosphorescence emission spectra were obtained with a HORIBA JOBIN YVON, fluromax-4 and spectrofluorometer.
Luminescence quantum yields were measured according to the method of Demas and Crosby, on solution samples at RT. The quantum yield is defined as: […]
Where ΦP is the quantum yield of the sample, ΦR is the know quantum yield of the reference standard. […].
The luminescence spectra of vectorized iridium(III) complexes were determined in CH2Cl2 at room temperature (Table 3).

[6] = test system: MC3T3 osteoblast cells (non-tumor); assay: Cell viability assay (MTT), dark and blue light; format: cell-based, Murine; conditions: in the dark, 72 h; read-out: GI50 MC3T3 Dark
Procedure: as §1, §2, §3, §4, §5

[7] = test system: PC-3 prostate cancer cells (PSMA-negative); assay: Cell viability assay (MTT), dark and blue light; format: cell-based, Human; conditions: for GI50: read-out: GI50; for Photosensitizing index (PI): PC3, dark vs blue light
Procedure: Cells were grown in humidified incubators at 37° C. in 5% CO2. Murine MC3T3 osteoblast and NIH-3T3 fibroblast cells-used as non-tumor cell models-were cultured in a-MEM medium and DMEM medium supplemented with 10% fetal bovine serum (FBS) and 1% Penicillin/Streptomycin (P/S) antibiotics, respectively. Human T24 bladder, MGHU3 bladder, Scaber bladder, A549 lung, MCF7 breast, MiaPaCa2 pancreas cancer cells were cultured in DMEM medium supplemented with 10% FBS and 1% P/S antibiotics. Human ASPC-1 pancreas, PC-3 prostate, DU-145 prostate, C4-2B prostate and 22rV1 prostate cancer cells were cultured in RPMI medium supplemented with 10% FBS and 1% P/S antibiotics. Human Hela cervix and HepG2 liver cancer cells were cultured EMEM medium supplemented with 10% FBS and 1% P/S antibiotics.
as §2
Irradiation was conducted using an in-house device, a series of blue light LEDs selected according to the absorption spectra of the compounds at 458 nm wavelength with an emitted power of 9.6 Watts. The light fluence was measured at 458 nm with an optical power meter Thorlabs PM100A at different distances between the cell layer and the light source (5 and 10 cm).
as §3, §4, §5

[8] = n-octanol/water, shake-flask, mean of at least three determinations
[9] = 8 h in the dark, blue light 458 nm 10 min, then dark up to 72 h, read-out: GI50 T24 Blue
[10] = in the dark, 72 h, read-out: GI50 T24 Dark
[11] = 8 h in the dark, blue light 458 nm 10 min, then dark up to 72 h, read-out: GI50 NIH-3T3 Blue
[12] = in the dark, 72 h, read-out: GI50 NIH-3T3 Dark

Row | Structure (SMILES) | Log P [1, 8] | GI50 (T24 bladder cancer cells; [9]) | SI (vs NIH-3T3) T24 Dark (T24 bladder cancer cells) | GI50 (T24 bladder cancer cells; [10]) | τ1 emission lifetime [2] [ns] | λmax (nm) ε (M^−1 · cm^−1) [3] | GI50 [4, 11] [µM] | GI50 [4, 12] [µM] | ΦP emission phosphorescence quantum yield [5] [%] | Photosensitizing index (PI) T24 (T24 bladder cancer cells) | Log P [1] | λem [5] | Photosensitizing index (PI) [7] | Photosensitizing index (PI) [4] | also measured
1 | Cc1ccc2[c](c1)[Ir-3]13([c]4cc(C)ccc4-c4cccc[n+]41)([c]1n(CCCNC(=O)CCCC[C@@H]4SC[C@@H]5NC(=O)N[C@@H]54)cc[n+]1-c1cccc[n+]13)[n+]1ccccc1-2.F[P-](F)(F)(F)(F)F [I-b] | 0.43 ± 0.01 | 8.3 µM | >7.3 | 13.7 µM | 177 | 314 (sh) (18240), 382 (6150) nm (M^−1 · cm^−1) | > 100 | > 100 | 0.5 |  |  |  |  |  | Photosensitizing index (PI) T24 (T24 bladder cancer cells; listed as l-b): 1.7; maximum absorption, lowest-lying bands in the visible region over 360 nm [3]: around 380 nm
2 | COC(=O)c1ccc2[c](c1)[Ir-3]13([c]4cc(C(=O)OC)ccc4-c4cccc[n+]41)([c]1n(CCCNC(=O)CCCC[C@@H]4SC[C@@H]5NC(=O)N[C@@H]54)cc[n+]1-c1cccc[n+]13)[n+]1ccccc1-2.F[P-](F)(F)(F)(F)F [I-c] | −0.78 ± 0.01 | 24.9 µM and 24.5 µM | >3.7 | 26.7 µM and 26.9 µM | 411 | 310 (sh) (16860), 358 (4090), 400 (3295) nm (M^−1 · cm^−1) | > 100 | > 100 | 5.9 | 1.1 |  |  |  |  | SI (vs NIH-3T3) T24 Blue (T24 bladder cancer cells): >4.1
3 | COC(=O)c1cccc2[c]1[Ir-3]13([c]4c(C(=O)OC)cccc4-c4cccc[n+]41)([c]1n(CCCNC(=O)CCCC[C@@H]4SC[C@@H]5NC(=O)N[C@@H]54)cc[n+]1-c1cccc[n+]13)[n+]1ccccc1-2.F[P-](F)(F)(F)(F)F [I-d] | −0.10 ± 0.01 | 28.9 µM and 26.9 µM | >3.8 | 26.3 µM | 184 | 373 (4260) nm (M^−1 · cm^−1) | > 100 | > 100 | 0.7 | 1.0 |  |  |  |  | SI (vs NIH-3T3) T24 Blue (T24 bladder cancer cells): >3.7; maximum absorption, lowest-lying bands in the visible region over 360 nm [3]: around 370 nm
4 | F[P-](F)(F)(F)(F)F.O=C(CCCC[C@@H]1SC[C@@H]2NC(=O)N[C@@H]21)NCCCn1cc[n+]2[c]1[Ir-3]13([c]4cccc5ccc6ccc[n+]1c6c45)([c]1cccc4ccc5ccc[n+]3c5c14)[n+]1ccccc1-2 [I-i] |  | 35.4 µM |  |  | 210 | 320 (13840), 410 (3920) nm (M^−1 · cm^−1) | > 100 | > 100 | <0.1 | 1.4 | 0.60 ± 0.06 | 522-567 nm |  |  | GI50 [6]: 50.2 µM; Photosensitizing index (PI) NIH-3T3 ([4]; dark vs blue light 458 nm): >1
5 | COC(=O)c1ccc2[n+](c1)[Ir-3]13([c]4ccccc4-2)([c]2ccccc2-c2ccc(C(=O)OC)c[n+]21)[c]1n(CCCNC(=O)[c-]2cccc2)cc[n+]1-c1cccc[n+]13.F[P-](F)(F)(F)(F)F.[Fe+2].c1cc[cH-]c1 [IV-e] |  |  |  |  | 200 | 312 (sh) (27925), 363 (sh) (7290), 434 (6530) nm (M^−1 · cm^−1) |  |  | 0.17 |  | 1.37 ± 0.05 | 528 nm | 18.3 | 7.7 | GI50 ([7]; PC3, blue light): 0.54 µM; GI50 ([7]; PC3, dark): 9.9 µM; GI50 ([4]; NIH-3T3, blue light, read-out: GI50): 4.2 µM; GI50 ([4]; NIH-3T3, dark, read-out: GI50): 32.3 µM
6 | F[P-](F)(F)(F)(F)F.O=C(NCCCn1cc[n+]2[c]1[Ir-3]13([c]4ccccc4-c4ccc5ccccc5[n+]41)([c]1ccccc1-c1ccc4ccccc4[n+]13)[n+]1ccccc1-2)[c-]1cccc1.[Fe+2].c1cc[cH-]c1 [IV-g] |  |  |  |  | 214 | 334 (17135), 436 (4150) nm (M^−1 · cm^−1) |  |  | 0.02 |  | 1.42 ± 0.06 | 579 nm | 5.8 | 3.3 | SI (vs NIH-3T3) ([7]; PC3, blue light): 13.7; SI (vs NIH-3T3) ([7]; PC3, dark): 7.9; GI50 ([7]; PC3, dark): 1.5 µM; GI50 ([4]; NIH-3T3, dark, read-out: GI50): 11.8 µM
7 | F[P-](F)(F)(F)(F)F.O=C(NCCCn1cc[n+]2[c]1[Ir-3]13([c]4cc(F)cc(F)c4-c4cccc[n+]41)([c]1cc(F)cc(F)c1-c1cccc[n+]13)[n+]1ccccc1-2)[c-]1cccc1.[Fe+2].c1cc[cH-]c1 [IV-l] |  |  |  |  | 191 | 305 (sh) (21345), 356 (sh) (8645), 412 (3395) nm (M^−1 · cm^−1) |  |  | 0.01 |  | 1.14 ± 0.02 |  | 3.2 | 5.4 | SI (vs NIH-3T3) ([7]; PC3, dark): 4.8
